Source: article PMC9304322, “Targeting retinoic acid receptor alpha-corepressor interaction activates chaperone-mediated autophagy and protects against retinal degeneration” (Nature Communications, 2022)
Several values for one entry are separate records, joined by “and”; a condition that tells them apart may be missing. Equal values may be shown once.

What was measured:
[1] = test system: NIH3T3 stably expressing the KFERQ-PS-Dendra; assay: CMA activity, KFERQ-PS-Dendra fluorescent reporter in NIH3T3 mouse fibroblasts; type: cell-based; parameters: CMA activity (Fig. 1d), MEAN / CMA activity (Fig. 1e-g), mean / CMA activity (Fig. 1d), individual experiments / CMA activity, mean (Fig. S2c, second panel) / CMA activity, mean (Fig. S2c, first panel) / CMA activity, mean (Fig. S2c, third panel): unit not given here; details: for CMA activity (Fig. 1e-g), mean: n = 4
Method: Cells were transduced with lentivirus carrying the KFERQ-PS-Dendra reporter as before. Cells were photoactivated by exposure to a 3.5 mA (current constant) light emitting diode (LED: Norlux, 405 nm) for 3 min and then plated in glass-bottom 96 well plates. At the desired times, cells were fixed with 4% PFA and imaged using high-content microscopy (Operetta system, Perkin Elmer). Images were quantified using the manufacturer’s software in a minimum of 1,200 cells in 9 independent fields per well. […] This was particularly important in the case of primary human cells where the efficiency of transduction was ~65%. To avoid confounding effects for drug-induced changes in cell volume or adherence to the plate that could bring a fraction of the cells per field outside of focus, we set a threshold to count only […] that have at least 1/10 of the average number of […] detected in the untreated wells for each cell type (3–4 puncta/cell in the case of NIH3T3 and N2a cells and 5 puncta/cell in primary human fibroblasts).

[2] = test system: NIH3T3 cells stably expressing the mCherry-GFP-LC3 reporter; assay: Macroautophagy activity, mCherry-GFP-LC3 reporter; type: cell-based, mouse
Method: Cells were transduced with a lentiviral vector expressing mCherry-GFP-LC3[35], fixed and flux determined as the conversion of dual fluorescence puncta (autophagosomes) into only red fluorescent puncta (autolysosomes). Flux was also measured by immunoblot for LC3 in cells incubated for 6 h with 20 mM NH4Cl/100 μM leupeptin, by discounting the intensity of LC3 in non-treated cells from that in cells treated with the inhibitors.

[3] = c0 = 2 (axis unlabelled; ANOVA calls row factor Time)

`CC(=O)Nc1ccc(C2=Nc3ccc(Cl)cc3OC2)cc1` [CA77] was tested, and the “CMA activity (Fig. 1d), MEAN” value ([1]; 20 μM of each compound, n = 3 independent experiments) was 3.597, the “CMA activity (Fig. 1d), individual experiments” value ([1]; 20 μM of each compound, single experiments) was 3.288 and 3.538 and 3.964 and the “CMA activity (Fig. 1e-g), mean” value ([1]; 12h, concentration 0.02 (unit not given)) was 6.451. The “CMA activity (Fig. 1e-g), mean” value ([1]; 12h, concentration 0.2) was 6.218, the “CMA activity (Fig. 1e-g), mean” value ([1]; 12h, concentration 2) was 6.38 and the “CMA activity (Fig. 1e-g), mean” value ([1]; 12h, concentration 5) was 31.6977. The “CMA activity (Fig. 1e-g), mean” value ([1]; 12h, concentration 10) was 39.5886, the “CMA activity (Fig. 1e-g), mean” value ([1]; 12h, concentration 20) was 52.9995 and the “CMA activity (Fig. 1e-g), mean” value ([1]; 12h, concentration 30) was 60.386. For the same compound, the “CMA activity (Fig. 1e-g), mean” value ([1]; 12h, concentration 40) was 43.8824, the “CMA activity (Fig. 1e-g), mean” value ([1]; 12h, concentration 50) was 33.4774 and the “CMA activity (Fig. 1e-g), mean” value ([1]; 24h, concentration 0.02) was 5.564. For the same compound, the “CMA activity (Fig. 1e-g), mean” value ([1]; 24h, concentration 0.2) was 6.782, the “CMA activity (Fig. 1e-g), mean” value ([1]; 24h, concentration 2) was 8.318 and the “CMA activity (Fig. 1e-g), mean” value ([1]; 24h, concentration 5) was 26.3626. For the same compound, the “CMA activity (Fig. 1e-g), mean” value ([1]; 24h, concentration 10) was 39.2844, the “CMA activity (Fig. 1e-g), mean” value ([1]; 24h, concentration 20) was 59.6703 and the “CMA activity (Fig. 1e-g), mean” value ([1]; 24h, concentration 30) was 82.4074. The “CMA activity (Fig. 1e-g), mean” value ([1]; 24h, concentration 40) was 57.9474, the “CMA activity (Fig. 1e-g), mean” value ([1]; 24h, concentration 50) was 59.2412 and the “CMA activity (Fig. 1h-j), mean, untreated (0) = 1” value (“CMA activity (Fig. 1h-j), mean” for short) ([1]; concentration 0.2, 12+12w (12 h, then 12 h after washing out)) was 0.8003. The “CMA activity (Fig. 1h-j), mean” value ([1]; concentration 0.2, 12h) was 0.5989, the “CMA activity (Fig. 1h-j), mean” value ([1]; concentration 0.2, 24h) was 0.8798 and the “CMA activity (Fig. 1h-j), mean” value ([1]; concentration 2, 12+12w) was 0.935. The “CMA activity (Fig. 1h-j), mean” value ([1]; concentration 2, 12h) was 0.6146, the “CMA activity (Fig. 1h-j), mean” value ([1]; concentration 2, 24h) was 1.079 and the “CMA activity (Fig. 1h-j), mean” value ([1]; concentration 5, 12+12w) was 4.471. For the same compound, the “CMA activity (Fig. 1h-j), mean” value ([1]; concentration 5, 12h) was 3.053, the “CMA activity (Fig. 1h-j), mean” value ([1]; concentration 5, 24h) was 3.42 and the “CMA activity (Fig. 1h-j), mean” value ([1]; concentration 10, 12+12w) was 4.902. For the same compound, the “CMA activity (Fig. 1h-j), mean” value ([1]; concentration 10, 12h) was 3.813, the “CMA activity (Fig. 1h-j), mean” value ([1]; concentration 10, 24h) was 5.096 and the “CMA activity (Fig. 1h-j), mean” value ([1]; concentration 20, 12+12w) was 5.399. For the same compound, the “CMA activity (Fig. 1h-j), mean” value ([1]; concentration 20, 12h) was 5.105, the “CMA activity (Fig. 1h-j), mean” value ([1]; concentration 20, 24h) was 7.74 and the “CMA activity (Fig. 1h-j), mean” value ([1]; concentration 30, 12+12w) was 7.708. For the same compound, the “CMA activity (Fig. 1h-j), mean” value ([1]; concentration 30, 12h) was 5.817, the “CMA activity (Fig. 1h-j), mean” value ([1]; concentration 30, 24h) was 10.6896 and the “CMA activation compared with AR7” value ([1]; fluorescent CMA reporter in mouse fibroblasts, basal and inducible CMA) was > 40 % CMA of AR7. The toxicity in cells ([1]; mouse fibroblasts) was “without noticeable toxicity”, the effect on macroautophagy ([2]; NIH3T3, MRT-sensitive proteolysis, LC3-II flux, mCherry-GFP-LC3 reporter) was “did not have the inhibitory effect on macroautophagy” and the “APG (Fig. S3e)” value [2, 3] was 3.899. For the same compound, the “AUT (Fig. S3e)” value [2, 3] was 0.5811, the “AV (Fig. S3e)” value [2, 3] was 4.481 and the “APG (Fig. S3e)” value ([2]; c0 = 5 (axis unlabelled)) was 3.275. The “AUT (Fig. S3e)” value ([2]; c0 = 5 (axis unlabelled)) was 0.7542, the “AV (Fig. S3e)” value ([2]; c0 = 5 (axis unlabelled)) was 4.029 and the “APG (Fig. S3e)” value ([2]; c0 = 10 (axis unlabelled)) was 2.43. The “AUT (Fig. S3e)” value ([2]; c0 = 10 (axis unlabelled)) was 3.694, the “AV (Fig. S3e)” value ([2]; c0 = 10 (axis unlabelled)) was 6.1244 and the “APG (Fig. S3e)” value ([2]; c0 = 15 (axis unlabelled)) was 2.828. For the same compound, the “AUT (Fig. S3e)” value ([2]; c0 = 15 (axis unlabelled)) was 3.073, the “AV (Fig. S3e)” value ([2]; c0 = 15 (axis unlabelled)) was 5.901 and the “APG (Fig. S3e)” value ([2]; c0 = 20 (axis unlabelled)) was 2.044. The “AUT (Fig. S3e)” value ([2]; c0 = 20 (axis unlabelled)) was 3.746, the “AV (Fig. S3e)” value ([2]; c0 = 20 (axis unlabelled)) was 5.79 and the “APG (Fig. S3e)” value ([2]; c0 = 25 (axis unlabelled)) was 2.063. The “AUT (Fig. S3e)” value ([2]; c0 = 25 (axis unlabelled)) was 4.0642, the “AV (Fig. S3e)” value ([2]; c0 = 25 (axis unlabelled)) was 6.127 and the “APG (Fig. S3e)” value ([2]; c0 = 30 (axis unlabelled)) was 2.895. The “AUT (Fig. S3e)” value ([2]; c0 = 30 (axis unlabelled)) was 3.5777, the “AV (Fig. S3e)” value ([2]; c0 = 30 (axis unlabelled)) was 6.473 and the “APG (Fig. S3e)” value ([2]; c0 = 40 (axis unlabelled)) was 2.857. For the same compound, the “AUT (Fig. S3e)” value ([2]; c0 = 40 (axis unlabelled)) was 3.822, the “AV (Fig. S3e)” value ([2]; c0 = 40 (axis unlabelled)) was 6.679 and the “APG (Fig. S3e)” value ([2]; c0 = 50 (axis unlabelled)) was 4.838. For the same compound, the “AUT (Fig. S3e)” value ([2]; c0 = 50 (axis unlabelled)) was 2.082 and the “AV (Fig. S3e)” value ([2]; c0 = 50 (axis unlabelled)) was 6.9193.
